# Measured values as given in the supplement of paper PMC10307832.
# Tests used:
# Assay in all cases: relative viability (nuclei count vs DMSO), 5 days (fraction); higher = more cells survive
# [1] = compound: CCN(CCO)CCCC(C)Nc1ccnc2cc(Cl)ccc12 [Hydroxychloroquine] + C[C@]1(O)C[C@@H](c2nc(-c3ccc4ccc(-c5ccccc5)nc4c3)c3c(N)nccn32)C1 [Linsitinib] (partner 1 µM)
# How it was run: (§1)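 One day after seeding in 1536-well plates, lung cancer cell lines were dosed by pin tool. Dosing was either single-drug or a fixed anchor-drug dose plus five library-drug doses (not always all listed) in √10 steps. After 5 days, nuclei were stained in one fix-and-stain step and counted on 4× images, and relative viability is the nuclei count of treated wells over that of vehicle wells, given as the median of duplicate plates.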
# [2] = compound: CCN(CCO)CCCC(C)Nc1ccnc2cc(Cl)ccc12 [Hydroxychloroquine] + CC1(C)CCC(c2ccc(Cl)cc2)=C(CN2CCN(c3ccc(C(=O)NS(=O)(=O)c4ccc(N[C@H](CCN5CCOCC5)CSc5ccccc5)c(S(=O)(=O)C(F)(F)F)c4)cc3)CC2)C1 [Navitoclax] (partner 0.5 µM)
# How it was run: as §1
# [3] = compound: CCN(CCO)CCCC(C)Nc1ccnc2cc(Cl)ccc12 [Hydroxychloroquine] + COc1cc2c(Oc3ccc(NC(=O)C4(C(=O)Nc5ccc(F)cc5)CC4)cc3F)ccnc2cc1OCCCN1CCOCC1 [Foretinib] (partner 0.25 µM)
# How it was run: as §1
# [4] = compound: CCN(CCO)CCCC(C)Nc1ccnc2cc(Cl)ccc12 [Hydroxychloroquine] + CCNC(=O)c1noc(-c2cc(C(C)C)c(O)cc2O)c1-c1ccc(CN2CCOCC2)cc1 [Luminespib] (partner 0.01 µM)
# How it was run: as §1
Cell Line,relative viability ([1]; first compound 0.5 µM),relative viability ([1]; first compound 1.581 µM),relative viability ([1]; first compound 5 µM),relative viability ([1]; first compound 15.81 µM),relative viability ([1]; first compound 50 µM),relative viability ([2]; first compound 0.5 µM),relative viability ([2]; first compound 1.581 µM),relative viability ([2]; first compound 5 µM),relative viability ([2]; first compound 15.81 µM),relative viability ([2]; first compound 50 µM),relative viability ([3]; first compound 0.5 µM),relative viability ([3]; first compound 1.581 µM),relative viability ([3]; first compound 5 µM),relative viability ([3]; first compound 15.81 µM),relative viability ([3]; first compound 50 µM),relative viability ([4]; first compound 0.5 µM),relative viability ([4]; first compound 1.581 µM),relative viability ([4]; first compound 5 µM),relative viability ([4]; first compound 15.81 µM),relative viability ([4]; first compound 50 µM)
Calu-6,0.864,0.881,1.11,0.938,0.942,0.852,0.883,0.836,0.731,0.823,0.922,0.855,0.888,0.872,0.879,,,,,
ChaGo-K-1,,,,,,1.22,0.685,0.687,1.06,1,0.939,1.04,0.929,0.911,1.04,0.615,0.626,0.55,0.594,0.643
EKVX,0.929,1.01,1.09,0.955,1.05,1.1,0.919,1.07,1.04,0.943,0.824,0.795,0.753,0.767,0.75,0.894,0.887,0.836,0.836,0.865
EMC-BAC-2,0.817,0.772,0.87,0.82,0.852,1.17,1.23,1.17,1.17,1.36,0.998,0.877,1.08,0.941,0.985,1.2,1.03,1.14,1.18,1.19
EPLC-272H,1.13,1,1.2,1.12,1.25,1.19,1.07,1.28,1.24,1.29,0.776,0.673,0.709,0.703,0.799,0.188,0.388,0.264,0.289,0.33
H3255,0.946,0.999,0.976,0.944,0.982,0.56,0.422,0.546,0.522,0.635,0.924,0.84,0.818,0.783,0.798,0.966,0.874,0.912,0.819,0.742
HARA,1.01,0.993,0.996,0.997,0.913,1.14,1.15,1.14,1.2,1.12,0.957,0.918,0.891,0.921,1.07,1.15,1.09,0.789,0.542,1.01
HCC-15,0.815,0.861,0.879,0.912,0.898,0.72,0.669,0.702,0.758,0.714,1.1,1.04,1.04,1.04,1.05,0.433,0.39,0.25,0.252,0.503
HCC-44,0.634,0.682,0.723,0.748,0.774,1.02,1,0.964,0.994,1.06,,,,,,1.12,0.93,1.19,1.19,1.23
